ChEMBL document CHEMBL5113500, “New brefeldin A-cinnamic acid ester derivatives as potential antitumor agents: Design, synthesis and biological evaluation” (Eur J Med Chem, 2022)

Tests used:
[1] = Acute toxicity in ICR mouse assessed as change in AST level at 100 mg/kg, ip measured after 6 days; type: organism-based; details: in vivo, 144 h, time 6 day
[2] = Acute toxicity in ICR mouse assessed as change in uric acid level at 100 mg/kg, ip measured after 6 days; type: organism-based; details: in vivo, 144 h, time 6 day

C[C@H]1CCC/C=C/[C@@H]2C[C@H](O)C[C@H]2[C@H](OC(=O)/C=C/c2ccc(N(C)C)cc2)/C=C/C(=O)O1
Activity [1]: Non-Toxic | Activity [2]: Non-Toxic
